In patent US7790732B2, “5-Chloro-4-alkyl-3,4-dihydro-quinazolin-2-ylamine derivatives” (Hoffman-La Roche Inc., priority 2005, dated 2010):

Each compound was assayed against T1, recombinant human 5-HT5A receptor (Homo sapiens, UniProt P47898) (assay: [3H]LSD radioligand binding assay, recombinant human 5-HT5A receptor in HEK-EBNA cell membranes). Conditions: [3H]LSD approximately 1 nM; membranes from HEK-EBNA cells; Ki from IC50 by the Cheng-Prussoff equation.
T1 construct: expressed in transfected cells; host or cells: HEK-EBNA (Human Embryonic Kidney-EBNA) cells, transient cDNA expression, membranes
T1 sequence (P47898 whole entry): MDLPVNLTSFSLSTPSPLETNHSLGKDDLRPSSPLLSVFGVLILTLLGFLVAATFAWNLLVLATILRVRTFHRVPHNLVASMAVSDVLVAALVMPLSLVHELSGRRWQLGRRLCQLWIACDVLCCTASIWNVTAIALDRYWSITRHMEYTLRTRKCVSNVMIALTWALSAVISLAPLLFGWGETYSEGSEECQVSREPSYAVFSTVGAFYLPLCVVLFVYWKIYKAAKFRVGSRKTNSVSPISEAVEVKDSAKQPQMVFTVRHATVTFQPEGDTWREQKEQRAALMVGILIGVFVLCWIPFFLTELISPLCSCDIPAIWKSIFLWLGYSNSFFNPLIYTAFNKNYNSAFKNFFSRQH
Method: A [^3H] LSD radioligand binding assay was used to determine the affinity of the compounds for the recombinant human 5-HT5A receptor in membranes from transiently (cDNA) expressed 5-HT5A receptors in Human Embryonic Kidney-EBNA (HEK-EBNA) cells. Assay buffer consisted of Tris (50 mM) buffer containing 1 mM EGTA, 10 mM MgCl2 (pH 7.4) and 10 μM pargyline. The binding assay was carried out in 96-well-plates in the presence of [^3H]LSD (approximately 1 nM), approximately 2 μg/well of membrane protein, and 0.5 mg of Ysi-poly-1-lysine SPA beads in a final volume of 200 μl of buffer. Non-specific binding was defined using methiothepin 2 μM. Compounds were tested at 10 concentrations. All assays were conducted in duplicate and repeated at least two times. Assay plates were incubated for 120 min at room temperature before centrifugation. Bound ligand was determined using a Packard Topcount scintillation counter. IC50 values were calculated using a non-linear curve fitting program, and Ki values were calculated using the Cheng-Prussoff equation.

SMILES	Ki [nM]
CC1NC(N)=Nc2cccc(Cl)c21 (stereo not shown) [Example 1, 5-Chloro-4-methyl-3,4-dihydro-quinazolin-2-ylamine]	5.13
CNC1=Nc2cccc(Cl)c2C(C)N1 (stereo not shown) [Example 2, (5-Chloro-4-methyl-3,4-dihydro-quinazolin-2-yl)-methyl-amine]	10.8
CC1NC(NC2CCC2)=Nc2cccc(Cl)c21 (stereo not shown) [Example 3, (5-Chloro-4-methyl-3,4-dihydro-quinazolin-2-yl)-cyclobutyl-amine]	15.5
CC1NC(NCC(F)F)=Nc2cccc(Cl)c21 (stereo not shown) [Example 5, (5-Chloro-4-methyl-3,4-dihydro-quinazolin-2-yl)-(2,2-difluoro-ethyl)-amine]	10.1
CC1NC(N)=Nc2ccc(Cl)c(Cl)c21 (stereo not shown) [Example 8, 5,6-Dichloro-4-methyl-3,4-dihydro-quinazolin-2-ylamine]	2
CNC1=Nc2ccc(Cl)c(Cl)c2C(C)N1 (stereo not shown) [Example 9, (5,6-Dichloro-4-methyl-3,4-dihydro-quinazolin-2-yl)-methyl-amine]	6.34
CC1NC(NCC(F)F)=Nc2ccc(Cl)c(Cl)c21 (stereo not shown) [Example 10, (5,6-Dichloro-4-methyl-3,4-dihydro-quinazolin-2-yl)-(2,2-difluoro-ethyl)-amine]	5.67
CC1NC(NC2CCC2)=Nc2ccc(Cl)c(Cl)c21 (stereo not shown) [Example 15, Cyclobutyl-(5,6-dichloro-4-methyl-3,4-dihydro-quinazolin-2-yl)-amine]	6.9
CC(=O)NCCNC1=Nc2ccc(Cl)c(Cl)c2C(C)N1 (stereo not shown) [Example 16, N-[2-(5,6-Dichloro-4-methyl-3,4-dihydro-quinazolin-2-ylamino)-ethyl]-acetamide]	8.87
CCCCCNC1=Nc2ccc(Cl)c(Cl)c2C(C)N1 (stereo not shown) [Example 18, (5,6-Dichloro-4-methyl-3,4-dihydro-quinazolin-2-yl)-pentyl-amine]	13.9
COCCCNC1=Nc2ccc(Cl)c(Cl)c2C(C)N1 (stereo not shown) [Example 19, (5,6-Dichloro-4-methyl-3,4-dihydro-quinazolin-2-yl)-(3-methoxy-propyl)-amine]	6.9
CC1NC(NCC2COCCO2)=Nc2ccc(Cl)c(Cl)c21 (stereo not shown) [Example 21, (5,6-Dichloro-4-methyl-3,4-dihydro-quinazolin-2-yl)-[1,4]dioxan-2-ylmethyl-amine]	17.8
CC1NC(N)=Nc2c(Cl)ccc(Cl)c21 (stereo not shown) [Example 23, 5,8-Dichloro-4-methyl-3,4-dihydro-quinazolin-2-ylamine]	5.85
